Experimental data published in US4835154A, “1-aralykyl-5-piperazinylmethyl-2-mercaptoimidazoles and 2-alkylthioimidazoles and their use as dopamine-βhydroxylase inhibitors” (SmithKline Beckman Corporation, priority 1987, dated 1989).
pIC50: −log10 of the molar value.

Key:
DBH [1] = molecular target: T1, DBH (Homo sapiens, UniProt P09172); settings: literature reports; cited from earlier work
T1 sequence (P09172 1-617): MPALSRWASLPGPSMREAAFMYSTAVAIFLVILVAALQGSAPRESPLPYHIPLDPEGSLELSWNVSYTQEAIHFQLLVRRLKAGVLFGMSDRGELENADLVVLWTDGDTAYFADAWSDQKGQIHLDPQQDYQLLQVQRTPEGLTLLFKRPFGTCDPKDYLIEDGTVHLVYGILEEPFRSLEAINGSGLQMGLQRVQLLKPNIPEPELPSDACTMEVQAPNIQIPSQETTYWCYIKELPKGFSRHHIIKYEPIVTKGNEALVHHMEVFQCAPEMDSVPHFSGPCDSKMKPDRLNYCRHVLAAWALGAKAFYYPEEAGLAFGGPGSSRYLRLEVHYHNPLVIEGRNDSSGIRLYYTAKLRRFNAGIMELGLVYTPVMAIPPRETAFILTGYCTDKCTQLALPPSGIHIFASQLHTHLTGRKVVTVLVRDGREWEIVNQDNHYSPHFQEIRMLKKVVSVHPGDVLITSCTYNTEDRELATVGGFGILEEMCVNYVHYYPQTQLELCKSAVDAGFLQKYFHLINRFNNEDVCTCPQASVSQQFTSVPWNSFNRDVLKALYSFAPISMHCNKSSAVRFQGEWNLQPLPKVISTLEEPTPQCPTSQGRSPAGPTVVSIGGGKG

[2] = Ehrreich et al., 1976; cited from earlier work
DBH [3] = molecular target: T2, DBH (Bos taurus, UniProt P15101); experiment: in vitro DBH inhibition, conversion of tyramine to octopamine; assay type: biochemical; settings: molar concentration of compound at which DBH activity was halved; octopamine assayed as p-hydroxybenzaldehyde at 330 nm
T2 sequence (P15101 1-610): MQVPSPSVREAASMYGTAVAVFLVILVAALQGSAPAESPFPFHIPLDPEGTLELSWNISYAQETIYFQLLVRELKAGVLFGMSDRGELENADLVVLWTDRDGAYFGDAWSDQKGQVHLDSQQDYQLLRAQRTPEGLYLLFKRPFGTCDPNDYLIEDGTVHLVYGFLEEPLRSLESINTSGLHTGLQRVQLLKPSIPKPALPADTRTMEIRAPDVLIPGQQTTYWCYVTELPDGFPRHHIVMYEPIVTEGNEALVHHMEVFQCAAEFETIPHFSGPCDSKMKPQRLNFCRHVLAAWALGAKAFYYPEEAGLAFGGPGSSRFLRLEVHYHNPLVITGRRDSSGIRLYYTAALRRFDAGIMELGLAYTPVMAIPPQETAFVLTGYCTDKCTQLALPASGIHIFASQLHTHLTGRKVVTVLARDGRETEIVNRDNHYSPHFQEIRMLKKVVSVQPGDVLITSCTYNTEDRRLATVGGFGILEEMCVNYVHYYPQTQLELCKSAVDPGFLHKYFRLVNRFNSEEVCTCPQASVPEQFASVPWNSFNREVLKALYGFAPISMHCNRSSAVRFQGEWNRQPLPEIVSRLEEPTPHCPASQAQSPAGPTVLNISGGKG
Description: Listed in Table I is the compound of the invention that was tested for in vitro DBH inhibition by a standard procedure for assaying conversion of tyramine to octopamine in the presence of DBH. J. J. Pisano, et al., Biochim. Biophys. Acta, 43, 566-568 (1960). Octopamine was assayed following sodium periodate oxidation to p-hydroxybenzaldehyde by measuring spectrophotometric absorbance at 330 nm. In Table I, inhibition is given in molar concentration of compound at which DBH activity was halved (IC50). Fusaric acid, by this test has an IC50 of 8×10^-7 M.

[4] = test system: spontaneously hypertensive rats; experiment: mean arterial blood pressure in spontaneously hypertensive rats; assay type: in vivo; settings: 50 mg/kg intraperitoneally, vs vehicle-treated controls
Description: Further, spontaneously hypertensive rats were treated with the compound in Table I at a dose of 50 mg/kg intraperitoneally, and mean arterial blood pressure was monitored for 260 minutes using indwelling cannulae in the tail arteries. […] The maximal blood pressure reduction was approximately 25 mmHg.

[5] = Teresawa et al., 1971; cited from earlier work

Row | Compound | DBH inhibition (in words) (DBH [1]) | also measured
1 | O=C(O)c1ccc(CCC(Br)CBr)cn1 (stereo not drawn) [5-(3,4-dibromobutyl)picolinic acid] | DBH inhibitors | 
2 | O=C(O)c1ccc(CCCCCl)cn1 [5-(4-chlorobutyl) picolinic acid] | inhibit DBH | 
3 | CN(C)C(=S)SCc1ccc(C(=O)O)nc1 [5-(dimethyldithiocarbamoylmethyl)picolinic acid] | DBH inhibitors | 
4 | NOCc1ccccc1 [Benzyloxyamine] | competitive inhibitors | 
5 | CCCCc1ccc(C(N)=O)nc1 [Bupicomide, 5-(n-butyl)picolinamine] | DBH inhibitor | antihypertensive activity [2]: antihypertensive activity
6 | CN1CCN(Cc2cnc(S)n2Cc2cc(F)cc(F)c2)CC1 [Example 1, 1-(3,5-Difluorobenzyl)-5-[(4-methyl-1-piperazinyl)methyl]-2-mercaptoimidazole] |  | pIC50 (DBH [3]): 3.23; maximal blood pressure reduction ([4]; mean arterial blood pressure monitored for 260 minutes): approximately 25 mmHg; time to significant blood pressure reductions following treatment [4]: ≤ 30 min; blood pressure effect ([4]; within 30 minutes): significant blood pressure reductions
7 | CCCCc1ccc(C(=O)O)nc1 [Fusaric acid] |  | hepatotoxicity [5]: hepatotoxic
8 | NNCc1ccccc1 [benzylhydrazine] | competitive inhibitors | 
